Our source for the melting point values is a melting point compilation (Tetko et al.; mined from patent text by program, amines drawn as free bases though some values may be those of a salt).

Usually melting point stands for the temperature, or range, at which the solid turns liquid. `CCOC(=O)N1Cc2ccccc2P1(C)=O` (configuration not stated) yielded a melting point of 102 to 104 °C.

For `CC(C)(C)c1cc(NC(=O)c2ccccc2)cc(C(C)(C)C)c1O`, the melting point was in the range of 209 to 210 °C.

Turning to `CC(C)(C)OC(=O)N1CCN(c2ccc(N3CC(CO)OC3=O)cc2F)CC1` (configuration not stated), the melting point fell in the range of 144 to 146 °C.

In turn, `CCOC(=O)c1c(N)[nH]c2cc(OC)c(OC)cc12` registered a melting point of 164 to 166 °C.

Take `N#CCc1c[nH]c2ccc(NC(=O)NC3CCCCC3)cc12`: the melting point was in the range of 233 to 234 °C.

Compound `Cc1cc(-c2nc3cccnn3c2-c2ccnc(NC(=O)c3cccc4cccnc34)c2)ccc1F` gave a melting point of 229 to 230 °C.

The compound `COc1ccc(/C=C/C(=O)N2CC(CCl)c3c2cc(O)c2ncccc32)cc1` (configuration not stated) gave a melting point of 208 to 211 °C.

The compound `Cc1cc(-c2csc(-c3ccc(C(=O)O)cc3)n2)c(C)o1` came in with a melting point of 264 to 265 °C.

For the compound `CC(C)(C)OC(=O)C[C@H](NC(=O)CNC(=O)c1csc(NC(=O)NCc2ccccc2)n1)C(=O)Nc1ccccc1C(=O)OC(C)(C)C`, the melting point amounted to 116 °C.

The compound `Cc1cscc1NC(=S)Nc1cccc(Cl)c1N` gave a melting point of 298 to 305 °C.

Consider `O=C1C2CC(c3ccc([N+](=O)[O-])cc3)(C2)C(=O)N1C1CCCCC1`, for which the melting point was in the range of 163 to 164 °C.

For `CCC(Br)C(=O)NOCc1ccccc1` (configuration not stated), the melting point lay within 99.3 to 102 °C.

Compound `CN(N)c1cnn(-c2ccccc2)c(=O)c1Cl` returned a melting point of 128 to 130 °C.

`CN1C(=O)NC(=O)C1=Cc1cc(Br)c(O)c(Br)c1` returned a melting point of 271 to 277 °C.

Consider `CCc1sc2c(c1S(=O)(=O)c1ccc(OCCCN(C)C(C)c3ccc(OC)c(OC)c3)cc1)CN(Cc1ccccc1Cl)CC2` (configuration not stated), for which the melting point is 110 °C.

Compound `Clc1ccc2sc(=NCCc3c[nH]c4ccccc34)sc2c1` showed a melting point of 145 to 147 °C.

For `COC(=O)c1sc2ccc(Br)cc2c1-c1ccccc1`, the melting point is 125 to 126 °C.

With `COc1cc(CNC(=O)c2nc3scc(COCc4ccc(C(=O)O)cc4)c3c(=O)[nH]2)ccn1`, the melting point was 240 to 242 °C.

Consider `COc1ccccc1N1CCN(CCCNC(=O)c2cccc3c(=O)cc(-c4ccccc4)[nH]c23)CC1`, for which the melting point is 135 to 140 °C.

In turn, `CCc1[nH]c2cc(F)ccc2c1C1=CCNCC1` displayed a melting point of 194 to 196 °C.

Compound `CNC(=O)CCCCCN(C)S(=O)(=O)c1ccc(Cl)c(COc2cccc3ccc(C)nc23)c1Cl` gave a melting point of 110 to 112 °C.

Turning to `CCOC(=O)/C=C/c1cc(OCc2cn(-c3ccc(C(F)(F)F)cn3)nc2C(C)C)nn1C`, the melting point was 105 to 106 °C.

`CN(C(=O)Cl)c1ccccc1C(F)(F)F` registered a melting point of 44 to 46 °C.

With `CC(C)CCS(=O)C1=C(O)CC(C)(C)CC1=O` (configuration not stated), the melting point fell in the range of 64.5 to 66 °C.

`Cc1nc(-c2cc(C(C)(C)C)c3c(c2)C(C)(C)CO3)no1` returned a melting point of 81 to 82 °C.

Turning to `O=C(NCCCCCn1cncn1)c1ccc(Br)cc1`, the melting point lay in the range of 93 to 95 °C.

In turn, `N#CCCNC(=O)c1cccc(-c2ccc3c(c2)C(NCc2ccc(Cl)cc2Cl)CC3)c1` (configuration not stated) registered a melting point of 126 to 130 °C.

The compound `O=C(O)c1ccc(Cl)c(S)c1` gave a melting point of 209 to 211 °C.

As to `CCCCc1nc2cccc(C(=O)OC)c2n1Cc1ccc(-c2ncncc2C#N)cc1`, the melting point lay within 131 to 133 °C.

Compound `CNS(=O)(=O)c1ccc(-c2cc(N3CCOCC3)cc(Nc3ccc(OC(F)(F)F)cc3)n2)cc1` came in with a melting point of 234 to 236 °C.

Turning to `Cc1cc(-c2ccc(C(F)(F)F)cc2)cn2c(-c3nc(-c4ccc(S(N)(=O)=O)cc4)no3)cnc12`, the melting point was found to be 290 °C.

Compound `CC(C)c1ccc([N+](=O)[O-])c(C(C)C)c1NC(=O)CN1CCN(CCCSc2nc3ccccc3o2)CC1` gave a melting point of 156 to 158 °C.

Compound `CC(C)(C)c1cc(SCCC(=O)NCC(=O)c2ccccc2)cc(C(C)(C)C)c1O` showed a melting point of 146 to 148 °C.

For `[N-]=[N+]=NCc1ccc(Sc2ccc(Cl)cc2)c(Cl)c1`, the melting point is 39 to 41 °C.

The compound `COC(=N)c1ccc(-c2cc3ncn([C@H](C)[C@](O)(Cn4cncn4)c4ccc(F)cc4F)c(=O)c3s2)cc1` yielded a melting point of 194 to 201 °C.

In the case of `COC(=O)c1ccc(-c2ccc(-c3cn([C@H]4CN5CCC4CC5)nn3)s2)cc1Cl`, the melting point was found to be 200 °C.

As for `c1ccc(-c2cc3ccccc3s2)nc1`, the melting point is 124 to 126 °C.

The compound `COc1ccc(Br)c(CN(CC(F)(F)F)C(=O)OC(C)(C)C)c1` yielded a melting point of 86 to 89 °C.

For `NC(=O)C1=CC=CN(CCc2ccc(Cl)s2)C1Oc1ccc(F)cc1` (configuration not stated), the melting point fell in the range of 78 to 80 °C.

With `CC(=O)Oc1cc(Cl)c(Cl)c(Cl)c1N1CC(O)CC1=O` (configuration not stated), the melting point was in the range of 84 to 86 °C.

Consider `c1ccc2c(c1)Cc1cccnc1O2`, for which the melting point is 87 to 88 °C.

Turning to `O=C(O)c1ccc2cc(O)c(O)cc2c1`, the melting point lay within 241 to 250 °C.

Compound `CN1CCN(Cc2cc(NC(=O)Nc3ccc(Oc4cc(Cl)ncn4)cc3)cc(C(F)(F)F)c2)CC1` gave a melting point of 291 to 292 °C.

`CC(=O)N1CCn2c1c(-c1ccccc1)c1ncccc1c2=O` showed a melting point of 229 to 231 °C.

The compound `CCCCc1ncc(/C=C(\Cc2ccsc2)c2nnn[nH]2)n1Cc1ccccc1Cl` had a melting point of 142 to 144 °C.

With `O=C1SC(=O)C(F)=C1F`, the melting point lay in the range of 52 to 56 °C.

For `COc1ccc(Cl)cc1C(=O)NCCc1ccc(-c2ccc(S(C)(=O)=O)cc2)c(S(N)(=O)=O)c1`, the melting point is 114 °C.

In turn, `O=C1C(c2ccc(Cl)cc2)Sc2ccc3ccccc3c2N1CCCCl` (configuration not stated) registered a melting point of 110 to 112 °C.

As for `Nc1c(NCCCN(Cc2ccccc2)c2ccccn2)c(=O)c1=O`, the melting point was 228 to 231 °C.

Compound `CCOC(=O)c1ccc(-c2cnc3c(c2)N(Cc2c(Cl)cccc2Cl)C(=O)CN3)cc1` registered a melting point of 226 °C.

`O=C(Cl)N1CC(Oc2ccc(Br)cc2)C1` had a melting point of 77 to 78 °C.

Turning to `Cc1nnc(C=Cc2ccccc2O)s1`, the melting point fell in the range of 253 to 254 °C.

As for `CSc1c(C(=O)O)ccc(Br)c1Cl`, the melting point lay within 128 to 130 °C.

As to `CCOC(=O)c1cccc(C)c1S(N)(=O)=O`, the melting point was 93 to 94 °C.

On to `CS(=O)c1cccc(-c2ncn(CCCN3CCOCC3)c2-c2ccncc2)c1` (configuration not stated), for which the melting point lay in the range of 117 to 118 °C.

Consider `CC(C)(C)C(=O)Oc1ccc(C(=O)CBr)cc1OC(=O)C(C)(C)C`, for which the melting point is 64 to 66 °C.

In the case of `Cc1nc(-c2ccc3c(c2)c2cc(-c4ccc(Cl)cc4Cl)c(=O)n(C)c2n3C)cs1`, the melting point fell in the range of 253 to 254 °C.

Regarding `CCCCc1cn(Cc2ccc(-c3ccccc3C(=O)O)cc2)c2c(c1=O)CC(C)CC2` (configuration not stated), the melting point stood at 255 °C.

The compound `NNC(=O)c1cc2c(Oc3ccc(C(F)(F)F)cc3)cncc2s1` showed a melting point of 146 to 147 °C.

Compound `N#Cc1cccc(C2C(=O)N(Cc3ccccc3)Cc3cncn32)c1` (configuration not stated) came in with a melting point of 163 to 165 °C.

For `CC(SC(=O)c1ccccc1)C(=O)NCCC(=O)O` (configuration not stated), the melting point was 94 to 97 °C.

`COc1cc(Cl)ccc1C(=O)NC1COCCn2c1nc(-c1ccncn1)cc2=O` (racemic) had a melting point of 274 to 276 °C.

`Cc1cccc(C)c1NC(=O)c1ccc(S(C)(=O)=O)cc1` had a melting point of 164 to 166 °C.

`CCOc1nccc(CC(=O)O)c1NC(=O)OC(C)(C)C` returned a melting point of 94 to 95.5 °C.

The compound `O=C1c2cc3nnn(Cc4cnccn4)c(=O)c3cc2OC2CCCN12` (configuration not stated) showed a melting point of 229 to 231 °C.

Turning to `COc1ccc(N2CCN(c3ccc(N)cn3)CC2)cc1`, the melting point fell in the range of 134 to 135 °C.

The compound `CC(=O)Oc1ccc(CC(CCC(=O)O)N2C(=O)c3ccccc3C2=O)cc1` (configuration not stated) yielded a melting point of 142 to 144 °C.

Regarding `CCOP(=O)(/C=C/c1cn(-c2ccccc2)nc1OCc1ccc(OCc2nc(N3CCC(C(=O)O)CC3)sc2C)c(OC)c1)OCC`, the melting point lay in the range of 159 to 160 °C.

The compound `CCCCCCS(=O)(=O)c1nn2c(=O)cc(C)nc2s1` had a melting point of 111 to 115 °C.

Regarding `O=C1NCCc2ccc(OCCCCN3CCN(c4cccc5c4CCC5)CC3)nc2N1`, the melting point is 70 to 72 °C.

Compound `COc1cc2c(c3c1OC(C)(C)C3)C(c1ccn(-c3cc(C(N)=O)ccn3)c(=O)c1)=NC(C)(C)C2` registered a melting point of 174 to 175 °C.

In turn, `Cc1cc(Cl)nc2ccc(Cn3ccnc3)cc12` showed a melting point of 121 °C.

In the case of `C=C(C)Cn1c(C)c(C)c2cnnc(OCc3ccc(F)cc3)c21`, the melting point was in the range of 118 to 120 °C.

`Cc1ccc(C2=Cc3cc(C(=O)N[C@H]4CC[C@H](CN(C)C5CCOCC5)CC4)ccc3OC2)cc1` showed a melting point of 205 to 207 °C.

`COc1cc2c(cc1OC)C(=O)CS[C@@H](C(=O)O)C2` showed a melting point of 223 to 224 °C.

In the case of `C#CCn1c(=O)n(CC=C)c(=O)n(-c2cc(N3C(=O)C4=C(CCCC4)C3=O)c(F)cc2Cl)c1=O`, the melting point lay in the range of 107 to 114 °C.

`CC1(C)CCC(C)(C)c2cc3cc(-c4ccc(C(=O)O)c(Cl)c4)ccc3cc21` came in with a melting point of 213 to 215 °C.

Take `Oc1ccc(-c2nn(-c3cccc(F)c3)c3cc(O)ccc23)c(O)c1`: the melting point is over 200 °C.

For the compound `O=C(N[C@H]1CCOC1=O)[C@H](Cc1ccccc1)NS(=O)(=O)c1cccc2ccccc12`, the melting point lay within 93 to 94 °C.

With `CC(C)OC(=O)Nc1ccc(Cl)c(-c2ccnc3c(C(=O)c4cccs4)cnn23)c1`, the melting point lay within 234 to 236 °C.

In turn, `Cc1noc(NC(=O)N2CCN(c3nccc(-c4ccc(F)cc4)n3)CC2)c1C` yielded a melting point of 226 to 227 °C.

For the compound `Cn1nccc1CCS(=O)Cc1ccc(OCc2coc(/C=C/c3ccc(C(F)(F)F)cc3)n2)cc1` (configuration not stated), the melting point lay within 172 to 174 °C.

In the case of `FC(F)(F)c1ccc(CN2CC3(COc4cc5c(cc43)CCO5)c3c(Br)cccc32)o1` (configuration not stated), the melting point is 182 to 184 °C.

`CN1C(C(=O)Nc2ccccc2)=C(O)c2sc3ccccc3c2S1(=O)=O`: the melting point is 261 to 263 °C.

`COC(=O)CCc1cc(C)cc(NC(C)=O)n1` yielded a melting point of 82 °C.

The compound `O=C(O)C(CSc1nccs1)CS(=O)(=O)c1ccc(-c2ccc(Cl)cc2)cc1` (configuration not stated) registered a melting point of 152 to 154 °C.

In the case of `NC1=C2C=NN=C2N(c2ccc([N+](=O)[O-])cc2)CN1c1ccccc1`, the melting point lay in the range of 348 to 349 °C.
